From ChEMBL document CHEMBL1123676, “Synthetic and enzyme inhibition studies of pepstatin analogues containing hydroxyethylene and ketomethylene dipeptide isosteres” (J Med Chem, 1987) come the findings set out here.

For orientation: Ki means the dissociation constant of the complex between target and ligand, obtained from inhibition or displacement.

Non-standard residues stand in square brackets, D forms with d. Residues, ends and D or L forms follow the SMILES beside them. ξ: configuration not given here. *: point of attachment. Cbz = O=C(OCc1ccccc1)*; ξL = CC(C)CC(N)C(=O)O; ξA = CC(N)C(=O)O

Test [1] addresses T1, Pepsin A (Sus scrofa, UniProt P00791). Briefly: Inhibition of porcine pepsin.
The target of test [2] is Pepsin A (Sus scrofa) (UniProt P00791). Briefly: Slow binding inhibition characteristic of the pepstatin-pepsin interaction; - indicates that the binding is not slow.
Chain of Pepsin A (Sus scrofa) (P00791 60-385 limits assumed): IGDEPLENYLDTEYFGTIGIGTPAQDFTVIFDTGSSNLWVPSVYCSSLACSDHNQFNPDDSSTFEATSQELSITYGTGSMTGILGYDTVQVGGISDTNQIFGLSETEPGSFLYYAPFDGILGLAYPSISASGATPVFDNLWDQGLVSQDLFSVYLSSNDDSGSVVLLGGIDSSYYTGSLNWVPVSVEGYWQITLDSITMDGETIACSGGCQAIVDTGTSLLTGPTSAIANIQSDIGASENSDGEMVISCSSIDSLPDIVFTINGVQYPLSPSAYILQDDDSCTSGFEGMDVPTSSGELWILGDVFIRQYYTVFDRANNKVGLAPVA
The target is the same in test [3]. Briefly: Slow binding inhibition characteristic of the pepstatin-pepsin interaction; indicates that the binding is not slow.
Test [4] is described as follows: Ratio of kinetic constant kcat / KM of porcine pepsin.
In test [5] the target is Pepsin A (Sus scrofa) (UniProt P00791). Briefly: The kinetic constant (Kcat)of porcine pepsin substrate Z-His-Phe-Phe-oMe was determined.
Test [6] shares this target.
The target is the same in test [7]. Briefly: The kinetic constant (Kcat)of porcine pepsin substrate Z-His-Phe-Ala-oMe was determined.
Test [8] shares this target. Briefly: The kinetic constant (Kcat)of porcine pepsin substrate Z-His-Phe-Gly-oMe was determined.
Test [9] shares this target. Briefly: The kinetic constant (Kcat)of porcine pepsin substrate Z-His-Phe-Leu-oMe was determined.
The target is the same in test [10]. This is another data set of the same source.
Test [11] addresses T1, Pepsin A. Briefly: Inhibitory activity against porcine pepsin was determined.
Test [12] has as its target T1, Pepsin A. Briefly: Inhibitory activity against porcine pepsin substrate Z-His-Phe-DPhe-oMe was determined.

T1 sequence (P00791 whole entry): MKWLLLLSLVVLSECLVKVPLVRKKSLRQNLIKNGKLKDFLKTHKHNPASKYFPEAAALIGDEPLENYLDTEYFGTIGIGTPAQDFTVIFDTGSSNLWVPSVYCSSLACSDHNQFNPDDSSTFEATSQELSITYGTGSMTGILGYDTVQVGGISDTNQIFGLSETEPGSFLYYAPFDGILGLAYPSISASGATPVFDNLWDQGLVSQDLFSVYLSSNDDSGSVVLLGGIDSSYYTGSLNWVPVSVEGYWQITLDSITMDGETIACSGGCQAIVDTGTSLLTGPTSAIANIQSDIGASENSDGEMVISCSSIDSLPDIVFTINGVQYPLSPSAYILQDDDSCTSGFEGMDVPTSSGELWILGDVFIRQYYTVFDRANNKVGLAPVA

`CC(C)CCNC(=O)C(C)NC(=O)C(C)C[C@H](O)[C@H](CC(C)C)NC(=O)C(NC(=O)CC(C)C)C(C)C` (stereo not given in full) gave an inhibition constant (Ki) in test [1] of 3 nM.

The compound `CC(C)CCNC(=O)C(C)NC(=O)C(Cc1ccccc1)C[C@H](O)[C@H](CC(C)C)NC(=O)C(NC(=O)CC(C)C)C(C)C` (stereo not given in full) showed an inhibition constant (Ki) in [1] of 2.5 nM.

For the compound `CC(C)CCNC(=O)CNC(=O)C[C@H](O)C(CC(C)C)NC(=O)C(NC(=O)CC(C)C)C(C)C` (stereo not given in full), the Slow binding entry in test [2] is reported as “binding is not slow”. This compound also came in with a Ki in test [1] of 56 nM.

As for `CC(C)CCNC(=O)C(C)NC(=O)[C@H](Cc1ccccc1)C[C@H](O)[C@H](CC(C)C)NC(=O)C(NC(=O)CC(C)C)C(C)C` (stereo not given in full), the Slow binding result in test [3] is listed as “indicates that the binding is not slow”. Besides, the inhibition constant Ki in [1] is 140 nM.

Consider `COC(=O)C(Cc1ccccc1)NC(=O)[C@H](Cc1ccccc1)NC(=O)[C@H](Cc1c[nH]cn1)NC(=O)OCc1ccccc1` (stereo not given in full), for which the Ratio in test [4] came out at 520. The compound further registered a k cat in [5] of 170 ms-1.

For the compound `CC(C)CCNC(=O)C(C)C[C@H](O)[C@H](CC(C)C)NC(=O)C(NC(=O)CC(C)C)C(C)C` (stereo not given in full), in test [1], the affinity, expressed as Ki, was 27 nM. In addition, in [6], the Slow binding result is reported as “binding is not slow”.

Take `CC(C)CCNC(=O)C(C)NC(=O)C(C)CC(=O)[C@H](CC(C)C)NC(=O)C(NC(=O)CC(C)C)C(C)C` (stereo not given in full): the Slow binding entry in test [2] is on record as “binding is not slow”. In addition, in test [1], the inhibition constant (Ki) came out at 27 nM.

On to `COC(=O)C(C)NC(=O)[C@H](Cc1ccccc1)NC(=O)[C@H](Cc1c[nH]cn1)NC(=O)OCc1ccccc1` (stereo partly drawn) (Cbz-His-Phe-[ξA]-OMe), for which, in [4], the Ratio turned out to be 2.1. The k cat in [7] amounted to 3.7 ms-1.

As to `CC(C)CCNC(=O)C(C)NC(=O)CCC(=O)[C@H](CC(C)C)NC(=O)C(NC(=O)CC(C)C)C(C)C` (stereo not given in full), the Slow binding result in [2] is given as “binding is not slow”. The inhibition constant (Ki) in test [1] stood at 2140 nM.

As for `CC(C)CCNC(=O)C(C)NC(=O)CC(=O)C(CC(C)C)NC(=O)C(NC(=O)CC(C)C)C(C)C` (stereo not given), the Slow binding entry in [2] is listed as “binding is not slow”. In addition, the affinity in [1] corresponds to a Ki of 56 nM.

On to `COC(=O)CNC(=O)[C@H](Cc1ccccc1)NC(=O)[C@H](Cc1c[nH]cn1)NC(=O)OCc1ccccc1` (Cbz-His-Phe-Gly-OMe), for which the k cat in test [8] stood at 2.1 ms-1. Also, the Ratio in [4] was 1.3.

`COC(=O)C(CC(C)C)NC(=O)[C@H](Cc1ccccc1)NC(=O)[C@H](Cc1c[nH]cn1)NC(=O)OCc1ccccc1` (stereo partly drawn) (Cbz-His-Phe-[ξL]-OMe) displayed a k cat in [9] of 5.2 ms-1. Also, the Ratio in test [4] worked out at 10.

For `CC(C)CCNC(=O)C(C)NC(=O)C(CC(=O)[C@H](CC(C)C)NC(=O)C(NC(=O)CC(C)C)C(C)C)Cc1ccccc1` (stereo not given in full), the Slow binding entry in [2] is on record as “binding is not slow”. Moreover, the Ki in test [1] is 72 nM.

For the compound `CC(C)CCNC(=O)C(C)NC(=O)[C@@H](CC(=O)[C@H](CC(C)C)NC(=O)C(NC(=O)CC(C)C)C(C)C)Cc1ccccc1` (stereo not given in full), the Slow binding entry in [2] is on record as “binding is not slow”. The same compound yielded a Ki in test [1] of 850 nM.

On to `CC(C)CCNC(=O)C(C)NC(=O)CC[C@H](O)[C@H](CC(C)C)NC(=O)C(NC(=O)CC(C)C)C(C)C` (stereo not given in full), for which the inhibition constant Ki in test [1] worked out at 50 nM. Besides, the Slow binding result in test [10] is given as “binding is not slow”.

`CC(C)CCNC(=O)C(C)NC(=O)C[C@H](O)C(CC(C)C)NC(=O)C(NC(=O)CC(C)C)C(C)C` (stereo not given in full): affinity in [11] was put at a Ki of 3 nM.

For `COC(=O)[C@@H](Cc1ccccc1)NC(=O)[C@H](Cc1ccccc1)NC(=O)[C@H](Cc1c[nH]cn1)NC(=O)OCc1ccccc1`, in test [12], affinity was put at a Ki of 280000 nM.
